For the first experiment, the target named is T1, hGLUT1 (Homo sapiens, UniProt P11166).
T1 construct: gene SLC2A1; pSP64T-hGLUT1, cRNA-injected Xenopus laevis oocytes
T1 sequence (P11166 1-492): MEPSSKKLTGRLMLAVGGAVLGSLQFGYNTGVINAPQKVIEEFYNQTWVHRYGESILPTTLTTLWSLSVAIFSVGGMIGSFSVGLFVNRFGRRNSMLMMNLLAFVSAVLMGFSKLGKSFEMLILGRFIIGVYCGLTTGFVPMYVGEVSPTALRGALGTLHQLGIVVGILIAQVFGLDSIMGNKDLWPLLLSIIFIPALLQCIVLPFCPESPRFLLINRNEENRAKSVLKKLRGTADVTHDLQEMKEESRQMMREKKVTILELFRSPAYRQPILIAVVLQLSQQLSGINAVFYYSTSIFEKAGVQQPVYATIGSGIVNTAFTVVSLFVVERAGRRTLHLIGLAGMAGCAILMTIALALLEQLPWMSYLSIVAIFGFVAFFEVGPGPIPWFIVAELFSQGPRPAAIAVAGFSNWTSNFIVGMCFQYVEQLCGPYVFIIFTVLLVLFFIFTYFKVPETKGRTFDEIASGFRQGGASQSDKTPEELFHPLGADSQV
Put plainly: 3H-2-DG uptake in cRNA-injected Xenopus oocytes. It counts as cell-based. Conditions: 10 mM 2-DG, 15 min, pH 7.6; positive control; labelled compound as tracer.
As to `OC[C@H]1OC(O)C[C@@H](O)[C@@H]1O` (stereo partly drawn) [2-deoxy-D-glucose], the “3H-2-DG uptake in cRNA-injected Xenopus oocytes” value is given as “The hGLUT1 cRNA-injected oocytes were used as a positive control”.

The next experiment addresses T2, FGT-1 (Caenorhabditis elegans, UniProt O44827).
T2 construct: gene fdgt-1; full-length fgt-1a cDNA in pSP64T, untagged, cRNA-injected Xenopus laevis oocytes
T2 sequence (O44827 1-492 isoform O44827-2): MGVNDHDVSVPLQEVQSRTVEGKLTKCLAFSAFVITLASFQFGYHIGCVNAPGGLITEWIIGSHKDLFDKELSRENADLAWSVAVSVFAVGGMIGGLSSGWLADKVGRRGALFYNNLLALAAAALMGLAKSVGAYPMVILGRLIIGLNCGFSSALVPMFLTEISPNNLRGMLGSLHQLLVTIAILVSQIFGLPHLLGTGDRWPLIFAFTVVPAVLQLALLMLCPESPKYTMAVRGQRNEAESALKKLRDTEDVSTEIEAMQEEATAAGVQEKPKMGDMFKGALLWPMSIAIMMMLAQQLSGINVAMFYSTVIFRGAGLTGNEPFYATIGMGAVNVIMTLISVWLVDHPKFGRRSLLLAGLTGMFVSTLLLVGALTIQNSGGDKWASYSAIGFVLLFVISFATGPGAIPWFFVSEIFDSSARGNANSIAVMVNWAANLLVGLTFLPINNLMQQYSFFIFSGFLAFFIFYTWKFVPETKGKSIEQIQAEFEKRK
As to the kind of experiment: inhibition of 3H-2-DG uptake in Xenopus oocytes. It counts as cell-based. The settings on record: read-out: % inhibition at 30 mM.
Regarding `OCC1(O)OC[C@@H](O)[C@@H](O)[C@@H]1O` (stereo partly drawn) [D-fructose], the inhibition at 30000 µM stood at 42%.
As for `OC[C@H]1OC(O)[C@H](O)[C@@H](O)[C@H]1O` (stereo partly drawn) [D-galactose], the inhibition at 30000 µM turned out to be 33%.
As to `OC[C@H]1OC(O)[C@@H](O)[C@@H](O)[C@@H]1O` (stereo partly drawn) [D-mannose], the inhibition at 30000 µM stood at 79%.
Same read-out and setting: the figure for `CO[C@H]1[C@H](O)[C@@H](CO)OC(O)[C@@H]1O` (stereo partly drawn) [3-O-methylglucose] is 77%; for `OC[C@H]1OC(O)[C@H](O)[C@@H](O)[C@@H]1O` (stereo partly drawn) [D-glucose] it is 79%.

What is called inhibition is how much of the control response was suppressed.

Source of the values: publication PMC3691140, “FGT-1 Is a Mammalian GLUT2-Like Facilitative Glucose Transporter in Caenorhabditis elegans Whose Malfunction Induces Fat Accumulation in Intestinal Cells” (PLoS ONE, 2013).
